The values below are quoted from earlier work in article PMC3907537, “Evaluation of the Endothelin Receptor Antagonists Ambrisentan, Bosentan, Macitentan, and Sitaxsentan as Hepatobiliary Transporter Inhibitors and Substrates in Sandwich-Cultured Human Hepatocytes” (PLoS ONE, 2014).

Values joined by “and” are separate entries in the source; they are usually repeats but may differ in a detail not shown here. Equal values may be shown once. Read-outs that look alike come from different tables or passages of the source.

For data set [1], the target named is T1, BSEP (Homo sapiens, UniProt O95342).
T1 construct: purchased Solvo Biotechnology, Budaors, Hungary; host or cells: Sf9 insect cells (membrane vesicles)
T1 sequence (O95342 whole entry): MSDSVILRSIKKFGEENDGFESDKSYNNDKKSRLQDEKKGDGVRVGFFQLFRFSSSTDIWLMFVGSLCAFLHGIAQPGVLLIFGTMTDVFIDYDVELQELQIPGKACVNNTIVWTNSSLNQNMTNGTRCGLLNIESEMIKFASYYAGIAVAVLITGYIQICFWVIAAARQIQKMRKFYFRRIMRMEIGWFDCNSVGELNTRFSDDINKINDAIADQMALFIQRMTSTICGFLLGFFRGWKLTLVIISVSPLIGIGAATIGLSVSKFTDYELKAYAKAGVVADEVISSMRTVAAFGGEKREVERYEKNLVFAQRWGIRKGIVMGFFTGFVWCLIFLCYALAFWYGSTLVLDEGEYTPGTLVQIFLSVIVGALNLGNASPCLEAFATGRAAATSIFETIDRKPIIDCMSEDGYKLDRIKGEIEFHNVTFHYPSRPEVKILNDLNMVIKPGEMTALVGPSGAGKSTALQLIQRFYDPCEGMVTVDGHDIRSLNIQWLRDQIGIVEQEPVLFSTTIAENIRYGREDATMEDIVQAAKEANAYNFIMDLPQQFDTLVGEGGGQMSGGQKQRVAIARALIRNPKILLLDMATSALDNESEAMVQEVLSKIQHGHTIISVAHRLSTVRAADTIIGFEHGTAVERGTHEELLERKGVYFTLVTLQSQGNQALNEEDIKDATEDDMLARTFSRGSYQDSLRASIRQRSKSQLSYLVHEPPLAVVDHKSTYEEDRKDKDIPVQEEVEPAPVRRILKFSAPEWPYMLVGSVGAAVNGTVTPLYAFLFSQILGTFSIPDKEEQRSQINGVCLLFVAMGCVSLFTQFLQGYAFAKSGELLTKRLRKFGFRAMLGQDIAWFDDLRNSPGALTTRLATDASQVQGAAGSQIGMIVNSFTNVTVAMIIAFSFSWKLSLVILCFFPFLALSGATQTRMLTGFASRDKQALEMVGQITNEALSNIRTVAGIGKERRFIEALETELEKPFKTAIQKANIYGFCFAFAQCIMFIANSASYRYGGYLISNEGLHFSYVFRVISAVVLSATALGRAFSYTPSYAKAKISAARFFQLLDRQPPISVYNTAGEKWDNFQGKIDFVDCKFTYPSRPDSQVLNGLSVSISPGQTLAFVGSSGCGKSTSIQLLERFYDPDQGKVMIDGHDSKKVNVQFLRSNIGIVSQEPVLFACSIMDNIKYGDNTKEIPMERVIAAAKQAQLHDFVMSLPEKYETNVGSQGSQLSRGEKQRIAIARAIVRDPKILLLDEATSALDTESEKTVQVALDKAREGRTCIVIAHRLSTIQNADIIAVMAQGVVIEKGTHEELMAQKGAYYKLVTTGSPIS
On the set-up: method as in earlier work. The settings on record: data previously reported, same assay conditions ref 35; cited from earlier work.

Another data set concerns the target T2, BCRP (Homo sapiens, UniProt Q9UNQ0).
T2 construct: host or cells: MDCKII
T2 sequence (Q9UNQ0 1-655): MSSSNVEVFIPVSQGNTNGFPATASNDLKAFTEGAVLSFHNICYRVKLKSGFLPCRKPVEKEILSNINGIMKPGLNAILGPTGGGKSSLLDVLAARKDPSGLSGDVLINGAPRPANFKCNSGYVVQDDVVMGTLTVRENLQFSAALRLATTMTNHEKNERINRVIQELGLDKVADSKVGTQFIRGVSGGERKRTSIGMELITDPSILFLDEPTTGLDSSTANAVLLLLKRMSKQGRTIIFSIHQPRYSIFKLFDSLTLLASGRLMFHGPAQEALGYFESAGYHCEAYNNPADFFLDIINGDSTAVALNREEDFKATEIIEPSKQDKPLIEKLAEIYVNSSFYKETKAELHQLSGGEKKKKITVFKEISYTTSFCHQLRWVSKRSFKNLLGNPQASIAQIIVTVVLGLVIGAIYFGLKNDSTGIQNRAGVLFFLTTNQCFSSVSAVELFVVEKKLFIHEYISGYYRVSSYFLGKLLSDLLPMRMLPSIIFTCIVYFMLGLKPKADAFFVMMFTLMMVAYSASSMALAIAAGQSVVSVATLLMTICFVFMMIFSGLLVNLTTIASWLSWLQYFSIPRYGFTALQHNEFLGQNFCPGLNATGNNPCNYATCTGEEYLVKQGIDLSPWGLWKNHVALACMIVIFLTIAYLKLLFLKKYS
Also noted: method as in earlier work. The settings on record: data previously reported, similar conditions ref 35; cited from earlier work.

The target in a further data set is T3, MRP2 (Homo sapiens, UniProt Q92887).
T3 construct: purchased Solvo Biotechnology, Budaors, Hungary; host or cells: Sf9 insect cells (membrane vesicles)
T3 sequence (Q92887 whole entry): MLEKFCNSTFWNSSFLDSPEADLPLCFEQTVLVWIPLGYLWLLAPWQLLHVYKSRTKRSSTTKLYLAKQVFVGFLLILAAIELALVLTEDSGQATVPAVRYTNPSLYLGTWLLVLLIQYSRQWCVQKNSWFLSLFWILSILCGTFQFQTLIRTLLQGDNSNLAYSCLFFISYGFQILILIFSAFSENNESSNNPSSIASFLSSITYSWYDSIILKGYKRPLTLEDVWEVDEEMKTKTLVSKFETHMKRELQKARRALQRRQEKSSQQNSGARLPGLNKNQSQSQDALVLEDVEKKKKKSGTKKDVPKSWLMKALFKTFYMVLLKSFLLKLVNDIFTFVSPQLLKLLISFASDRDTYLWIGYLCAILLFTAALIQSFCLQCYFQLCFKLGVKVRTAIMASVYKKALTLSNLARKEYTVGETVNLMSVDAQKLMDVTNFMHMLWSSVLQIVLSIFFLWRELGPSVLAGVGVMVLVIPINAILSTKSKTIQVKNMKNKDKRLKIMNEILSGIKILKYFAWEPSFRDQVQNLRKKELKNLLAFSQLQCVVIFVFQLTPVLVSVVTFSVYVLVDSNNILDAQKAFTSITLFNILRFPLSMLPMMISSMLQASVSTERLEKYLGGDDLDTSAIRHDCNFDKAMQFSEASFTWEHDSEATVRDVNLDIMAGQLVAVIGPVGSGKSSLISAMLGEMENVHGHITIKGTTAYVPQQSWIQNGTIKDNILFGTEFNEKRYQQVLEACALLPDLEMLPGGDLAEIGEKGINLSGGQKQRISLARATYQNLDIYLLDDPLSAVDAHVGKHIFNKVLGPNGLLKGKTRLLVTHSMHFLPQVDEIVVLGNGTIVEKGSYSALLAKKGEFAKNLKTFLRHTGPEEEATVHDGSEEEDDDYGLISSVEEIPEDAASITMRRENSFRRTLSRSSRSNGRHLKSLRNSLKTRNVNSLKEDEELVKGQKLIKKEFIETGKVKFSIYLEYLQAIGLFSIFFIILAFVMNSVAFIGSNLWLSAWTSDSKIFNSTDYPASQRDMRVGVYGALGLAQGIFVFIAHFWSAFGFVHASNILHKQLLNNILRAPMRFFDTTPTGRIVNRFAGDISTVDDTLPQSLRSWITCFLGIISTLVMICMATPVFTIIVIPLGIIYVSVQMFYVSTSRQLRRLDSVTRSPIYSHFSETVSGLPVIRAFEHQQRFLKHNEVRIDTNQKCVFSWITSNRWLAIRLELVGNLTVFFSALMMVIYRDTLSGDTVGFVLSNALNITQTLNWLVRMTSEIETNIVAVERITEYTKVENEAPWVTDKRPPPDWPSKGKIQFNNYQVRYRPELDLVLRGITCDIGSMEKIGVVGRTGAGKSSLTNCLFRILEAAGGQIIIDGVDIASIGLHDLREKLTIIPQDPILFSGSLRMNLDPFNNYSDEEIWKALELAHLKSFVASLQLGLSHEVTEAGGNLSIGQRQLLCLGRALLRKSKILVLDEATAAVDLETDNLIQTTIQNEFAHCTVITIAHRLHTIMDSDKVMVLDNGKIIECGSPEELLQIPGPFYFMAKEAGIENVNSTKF
On the set-up: method as in earlier work. The settings on record: data previously reported ref 35; cited from earlier work.

Another data set has as its target T4, Pgp (Homo sapiens, UniProt P08183).
T4 construct: host or cells: MDCKII
On the set-up: method as in earlier work. Conditions: data previously reported, similar conditions ref 35; cited from earlier work.

The conditions of data set [2]: cited from earlier work.
Data set [3] deals with BSEP. Also noted: method as in PMID 11309550, PMID 20829430, PMID 17061295, PMID 23956101. Conditions: read-out: BSEP inhibition values previously reported (IC50); cited from earlier work.
Another data set deals with human Pgp. On the set-up: method as in PMID 22348175. The settings on record: at doses up to 50 µM, Kim et al. ref 46; cited from earlier work.
For another data set, the system named is human OATP1B1. Conditions: cited from earlier work.
For another data set, the target named is T5, OATP1B3 (Homo sapiens, UniProt Q9NPD5).
T5 construct: host or cells: CHO
T5 sequence (Q9NPD5 1-702): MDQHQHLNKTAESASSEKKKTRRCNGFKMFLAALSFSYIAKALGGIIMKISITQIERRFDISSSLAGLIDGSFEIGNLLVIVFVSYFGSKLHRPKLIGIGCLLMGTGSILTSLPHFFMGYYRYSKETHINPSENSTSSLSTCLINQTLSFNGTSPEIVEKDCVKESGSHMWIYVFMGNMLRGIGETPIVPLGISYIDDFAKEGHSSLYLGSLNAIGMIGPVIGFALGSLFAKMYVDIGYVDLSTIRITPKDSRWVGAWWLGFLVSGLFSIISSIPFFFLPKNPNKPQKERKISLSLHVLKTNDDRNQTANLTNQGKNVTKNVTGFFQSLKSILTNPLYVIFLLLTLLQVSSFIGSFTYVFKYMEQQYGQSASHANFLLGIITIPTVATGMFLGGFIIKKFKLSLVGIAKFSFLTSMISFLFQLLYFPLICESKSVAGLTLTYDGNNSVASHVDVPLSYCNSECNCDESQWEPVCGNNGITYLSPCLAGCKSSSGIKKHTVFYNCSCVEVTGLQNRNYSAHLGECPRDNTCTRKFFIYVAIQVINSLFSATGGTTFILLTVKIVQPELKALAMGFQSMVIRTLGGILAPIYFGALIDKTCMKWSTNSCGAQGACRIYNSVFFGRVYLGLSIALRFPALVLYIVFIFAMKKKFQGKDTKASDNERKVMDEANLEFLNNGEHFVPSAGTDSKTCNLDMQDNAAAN
The settings on record: cited from earlier work.

The test system of the next data set is canine BCRP. Also noted: method as in PMID 23353592. Conditions: cited from earlier work.
Details of data set [4]: method as in PMID 22189899. The settings on record: plasma pharmacokinetics in patients ref 36; cited from earlier work.
For data set [5] the following is noted: cited from earlier work. The source holds these as a separate data set.
For the next data set, the system named is murine Pgp. On the set-up: method as in PMID 23353592. The settings on record: cited from earlier work.

T4 sequence (P08183 whole entry): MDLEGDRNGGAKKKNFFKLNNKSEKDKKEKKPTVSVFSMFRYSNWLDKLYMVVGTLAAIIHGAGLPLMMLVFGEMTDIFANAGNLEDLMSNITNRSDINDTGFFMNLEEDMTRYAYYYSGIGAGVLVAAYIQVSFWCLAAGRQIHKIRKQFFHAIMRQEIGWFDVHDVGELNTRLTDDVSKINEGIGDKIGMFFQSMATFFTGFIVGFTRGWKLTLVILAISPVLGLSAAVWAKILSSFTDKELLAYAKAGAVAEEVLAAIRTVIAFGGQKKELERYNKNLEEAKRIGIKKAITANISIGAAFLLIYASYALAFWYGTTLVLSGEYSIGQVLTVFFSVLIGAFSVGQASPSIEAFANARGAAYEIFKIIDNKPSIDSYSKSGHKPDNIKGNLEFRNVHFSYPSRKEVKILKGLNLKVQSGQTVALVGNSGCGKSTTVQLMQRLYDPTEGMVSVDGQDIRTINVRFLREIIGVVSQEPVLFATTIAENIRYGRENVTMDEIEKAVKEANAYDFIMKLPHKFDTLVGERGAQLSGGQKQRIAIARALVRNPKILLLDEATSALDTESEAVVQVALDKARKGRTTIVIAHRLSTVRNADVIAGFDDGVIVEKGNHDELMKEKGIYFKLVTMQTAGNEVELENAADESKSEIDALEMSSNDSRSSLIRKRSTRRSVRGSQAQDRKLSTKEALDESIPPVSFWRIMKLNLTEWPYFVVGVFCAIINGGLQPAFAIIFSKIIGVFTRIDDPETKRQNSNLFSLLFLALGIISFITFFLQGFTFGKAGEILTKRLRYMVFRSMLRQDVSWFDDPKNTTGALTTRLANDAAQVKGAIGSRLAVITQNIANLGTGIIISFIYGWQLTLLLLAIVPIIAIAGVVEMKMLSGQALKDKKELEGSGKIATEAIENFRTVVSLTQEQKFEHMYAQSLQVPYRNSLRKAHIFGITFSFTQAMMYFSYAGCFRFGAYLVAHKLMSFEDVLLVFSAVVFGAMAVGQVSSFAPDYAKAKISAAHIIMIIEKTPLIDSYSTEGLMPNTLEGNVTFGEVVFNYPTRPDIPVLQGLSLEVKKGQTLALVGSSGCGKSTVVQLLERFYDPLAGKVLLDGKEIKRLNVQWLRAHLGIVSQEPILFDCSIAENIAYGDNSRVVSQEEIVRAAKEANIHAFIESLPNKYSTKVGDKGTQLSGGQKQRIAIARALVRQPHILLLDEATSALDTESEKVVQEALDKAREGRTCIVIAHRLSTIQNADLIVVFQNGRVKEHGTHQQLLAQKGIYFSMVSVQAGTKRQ

A word on the IC50: it is the point on the concentration scale where inhibition reaches its midpoint. Turning to `Cc1cc2c(cc1CC(=O)c1sccc1S(=O)(=O)Nc1onc(C)c1Cl)OCO2` [sitaxsentan], the IC50 at BSEP [1] is 25 µM; on BCRP it was more than 100 µM; at MRP2 it was more than 100 µM; on Pgp, more than 100 µM.

On to `COC(c1ccccc1)(c1ccccc1)[C@H](Oc1nc(C)cc(C)n1)C(=O)O` [ambrisentan], for which the “patients with serum aminotransferase concentrations >3 times ULN” value in data set [2] (ARIES studies, n = 261 ref 11) is reported as “none”. The “incidence of elevated aminotransferase >3 times ULN” value in data set [2] (ARIES-E long-term extension, mean follow-up of 1.4 years ref 12) is recorded as 1.8%.

For the compound `COc1ccccc1Oc1c(NS(=O)(=O)c2ccc(C(C)(C)C)cc2)nc(-c2ncccn2)nc1OCCO` [bosentan], the half-maximal inhibitory concentration (IC50) with BSEP [3] was 12 to 76.8 µM.

Consider `CCCNS(=O)(=O)Nc1ncnc(OCCOc2ncc(Br)cn2)c1-c1ccc(Br)cc1` [macitentan], for which the “inhibition of human Pgp” value with human Pgp is recorded as “no inhibition”. Besides, the IC50 is 6.3 µM in the data set with human OATP1B1 (Bruderer et al. ref 36, read-out: OATP1B1 IC50); 4.4 µM in the data set with human OATP1B1 (read-out: human OATP1B1 IC50); 11.8 µM on OATP1B3 (Bruderer et al. ref 36); 10 µM at OATP1B3; 13.2 µM and 13 µM in the data set with canine BCRP; 4.4 µM and 4 µM in the data set with murine Pgp. For the same compound, in [4], the “increase in macitentan exposure on coadministration with cyclosporin A” value is on record as 10%. Besides, the “increase in macitentan trough concentration on coadministration with cyclosporin A” value in data set [4] was 38%. The “elevations >8X ULN on macitentan compared to placebo” value in data set [5] (SERAPHIN ref 19) is listed as approximately 5 fold. For the same compound, in [5] (SERAPHIN, PAH patients, up to 103.9 weeks, placebo 4.5% ref 17, 19), the “incidence of serum aminotransferase elevations >3X ULN” value is 3.4%. For the same compound, in data set [5] (SERAPHIN, placebo 0.4% ref 19), the “incidence of aminotransferase elevations >8X ULN” value is 2.1%.
